From patent US20220143045A1, “PROGESTERONE RECEPTOR ANTAGONIST DOSAGE FORM” (BAYER PHARMA AKTIENGESELLSCHAFT, priority 2013, published 2022)
Several values for one entry are separate records, joined by “and”; a condition that tells them apart may be missing. Identical values can stand only once.

Assays:
Assay type in all cases: in vivo, human
healthy female subjects [1] = test: Return of bleeding after end of treatment (84 days); settings: for Number of days until first bleeding after end of treatment (mean ± SD) / Number of days until first bleeding after end of treatment (min − max): PPS
Text: (§1) As described in example 2.
The first day of bleeding after the end of the treatment was marked.

healthy female subjects [2] = test: Endometrial thickness by transvaginal ultrasound during treatment; settings: 2 mg, 84 days, versus other dosages (FIG. 2)
Experimental: as §1
The endometrial thickness was measured in the medio-sagittal section as double-layer in millimeters using transvaginal ultrasound.

healthy female subjects [3] = test: Dose-effect of 84 days treatment: bleeding pattern (non-bleeding rate), daily self-assessment
Text: • 1. Healthy female subjects, sterilized by tubal ligation • 2. Age at screening: 18-45 years • 3. Body mass index (BMI) at screening: ≥18 and ≤32 kg/m^2 • 4. At least 3 consecutive regular menstrual cycles with a cycle length of 24-35 days before first screening examination according to the subject's history • 5. Absence of clinically relevant abnormal findings in the pre-treatment endometrial biopsy • 6. Adequate venous access (frequent blood sampling)
The subject had to start the intake of the study drugs on the first or second day of menstrual bleeding after the pre-treatment cycle. The pre-treatment cycle started on the first day of the subject's menstrual bleeding after screening examinations had shown that the subject was eligible for further participation. After the pre-treatments cycle treatment was started. The treatment period started with the first and ended with the last intake of compound 1. For each intake day the subject received one bottle containing 4 tablets. The number of tablets taken and the intake time had to be documented in the diary.
The evaluation of bleeding pattern was based on a daily self-assessment of the bleeding intensity by the subject. These assessments were categorized as defined below. The subjects were provided with an explanation of the categories in local language, and were asked to document the bleeding intensity in their diaries accordingly (one entry per day).
Administration of compound 1 occurred during 84 days (multiple doses administration).

healthy female subjects [4] = test: Ovulation inhibition: follicle size, estradiol (E2), progesterone (P)
Text: Protocol: Randomized Study population of healthy female subjects as described in example 2 above.
Blood samples were obtained from healthy female subjects for the determination of Estradiol (E2), Progesterone (P), luteinizing hormone (LH) and follicle stimulating hormone (FSH) in serum and taken at the same time points as listed below during the pre-treatment cycle, the treatment and follow-up cycle. Transvaginal ultrasound (TVU) was used to monitor ovarian follicular growth during pretreatment (days 9 and 21), treatment (days 7, 14, 21, 28, 35, 42, 49, 56, 63, 70, 77, 84) and follow-up cycle (days 9 and 21).

[5] = 0.5 mg once daily per os, 84 days
[6] = 0.1 mg, n = 11, treatment period
[7] = 0.1 mg, n = 11, treatment period, (third category)
[8] = 0.5 mg, n = 11, treatment period
[9] = 0.5 mg, n = 11, treatment period, (third category)
[10] = 1 mg, n = 12, treatment period, (third category)
[11] = 2 mg, n = 12, treatment period, (third category)
[12] = 5 mg, n = 11, treatment period, (third category)

Q: With C[C@]12C[C@H](c3ccc(S(C)(=O)=O)cc3)C3=C4CCC(=O)C=C4CC[C@H]3[C@@H]1CC[C@@]2(O)C(F)(F)C(F)(F)F [compound 1, (11β,17β)-17-Hydroxy-11-[4-(methylsulphonyl)phenyl]-17-(pentafluoroethyl)estra-4,9-dien-3-one] as the molecule, how does the “Number of days until first bleeding after end of treatment (mean ± SD)” value (“Number … (mean ± SD)” below) (healthy female subjects [1]; 0.1 mg, n = 11) read?
A: The value was 12.2 ± 9.9 days.

Q: And the “Number of days until first bleeding after end of treatment (min − max)” value (from here on “Number … (min − max)”) (healthy female subjects [1]; 0.1 mg, n = 11)?
A: Its value is “(3 − 35) days”.

Q: What about the “Number … (mean ± SD)” value (healthy female subjects [1]; 0.5 mg, n = 11) of the same molecule?
A: The value was 14.8 ± 10.2 days.

Q: What about the “Number … (min − max)” value (healthy female subjects [1]; 0.5 mg, n = 11) of the same molecule?
A: Its value is “( 1 − 28) days”.

Q: And the “Number … (mean ± SD)” value (healthy female subjects [1]; 1 mg, n = 10)?
A: Its value is 20.3 ± 6.2 days.

Q: What about the “Number … (min − max)” value (healthy female subjects [1]; 1 mg, n = 10) of the same molecule?
A: Its value is “(8 − 28) days”.

Q: And the “Number … (mean ± SD)” value (healthy female subjects [1]; 2 mg, n = 12)?
A: Its value is 25 days and 25.8 ± 11.1 days.

Q: And the “Number … (min − max)” value (healthy female subjects [1]; 2 mg, n = 12)?
A: Its value is “(9 − 52) days”.

Q: What about the “delayed return of bleeding after treatment, one subject” value (healthy female subjects [1]; 2 mg, single subject) of the same molecule?
A: Its value is “about 52 days”.

Q: What about the “Number … (mean ± SD)” value (healthy female subjects [1]; 5 mg, n = 11) of the same molecule?
A: The value was 20.9 ± 10.9 days.

Q: And the “Number … (min − max)” value (healthy female subjects [1]; 5 mg, n = 11)?
A: Its value is “(1 − 38) days”.

Q: What about the “maximum thickness of the endometrium within treatment epoch” value (healthy female subjects [2]) of the same molecule?
A: The value was “lower maximum thickness of the endometrium compared to other dosages”.

Q: What about the “number of subjects with no further bleeding during the treatment period (out of 11)” value (healthy female subjects [3]; [5]) of the same molecule?
A: Its value is 3.

Q: What about the “subjects with no further bleeding during the treatment period” value (healthy female subjects [3]; [5]) of the same molecule?
A: Its value is 27%.

Q: And the “number of days of bleeding during the treatment period” value (healthy female subjects [3]; 0.1-5 mg once daily per os, 84 days)?
A: The value was “marked and dose-dependent reduction”.

Q: And the “dosage at which 50% of dose-dependent reduction of bleeding is observed” value (healthy female subjects [3]; 84 days treatment, posterior of non-bleeding rate (FIG. 1))?
A: The value was 0.7 mg.

Q: And the “saturation of non-bleeding rate” value (healthy female subjects [3]; from 2 mg up to 5 mg, 84 days)?
A: Its value is “around 95%”.

Q: What about the “amenorrhea (non-bleeding)” value (healthy female subjects [3]; healthy subjects, dosage of 2 mg) of the same molecule?
A: Its value is 92.5%.

Q: And the “number of subjects with Follicle size ≤ 13 mm” value (healthy female subjects [4]; [6])?
A: The value was 1.

Q: What about the “percentage of subjects with Follicle size ≤ 13 mm” value (healthy female subjects [4]; [6]) of the same molecule?
A: Its value is 9%.

Q: And the “number of subjects with Follicle size > 13 mm + Estradiol > 27.2 pg/mL + Progesterone < 1.57 μg/L” value (healthy female subjects [4]; [7])?
A: Its value is 10.

Q: And the “percentage of subjects with Follicle size > 13 mm + Estradiol > 27.2 pg/mL + Progesterone < 1.57 μg/L” value (healthy female subjects [4]; [7])?
A: The value was 91%.

Q: What about the “number of subjects with Follicle size > 13 mm + Estradiol > 27.2 pg/mL + Progesterone < 1.57 μg/L” value (healthy female subjects [4]; [8]) of the same molecule?
A: Its value is 6.

Q: What about the “percentage of subjects with Follicle size > 13 mm + Estradiol > 27.2 pg/mL + Progesterone < 1.57 μg/L” value (healthy female subjects [4]; [8]) of the same molecule?
A: The value was 55%.

Q: What about the “number of subjects with Follicle size > 13 mm + Estradiol > 27.2 pg/mL + Progesterone < 1.57 μg/L” value (healthy female subjects [4]; [9]) of the same molecule?
A: The value was 5.

Q: And the “percentage of subjects with Follicle size > 13 mm + Estradiol > 27.2 pg/mL + Progesterone < 1.57 μg/L” value (healthy female subjects [4]; [9])?
A: Its value is 45%.

Q: What about the “number of subjects with Follicle size > 13 mm + Estradiol > 27.2 pg/mL + Progesterone < 1.57 μg/L” value (healthy female subjects [4]; 1 mg, n = 12, treatment period) of the same molecule?
A: The value was 9.

Q: And the “number of subjects with Follicle size ≤ 13 mm” value (healthy female subjects [4]; 1 mg, n = 12, treatment period)?
A: Its value is 1.

Q: And the “percentage of subjects with Follicle size > 13 mm + Estradiol > 27.2 pg/mL + Progesterone < 1.57 μg/L” value (healthy female subjects [4]; 1 mg, n = 12, treatment period)?
A: The value was 75%.

Q: What about the “percentage of subjects with Follicle size ≤ 13 mm” value (healthy female subjects [4]; 1 mg, n = 12, treatment period) of the same molecule?
A: The value was 8%.

Q: And the “number of subjects with Follicle size > 13 mm + Estradiol > 27.2 pg/mL + Progesterone < 1.57 μg/L” value (healthy female subjects [4]; [10])?
A: Its value is 2.

Q: What about the “percentage of subjects with Follicle size > 13 mm + Estradiol > 27.2 pg/mL + Progesterone < 1.57 μg/L” value (healthy female subjects [4]; [10]) of the same molecule?
A: Its value is 17%.

Q: What about the “number of subjects with Follicle size > 13 mm + Estradiol > 27.2 pg/mL + Progesterone < 1.57 μg/L” value (healthy female subjects [4]; 2 mg, n = 12, treatment period) of the same molecule?
A: Its value is 11.

Q: What about the “percentage of subjects with Follicle size > 13 mm + Estradiol > 27.2 pg/mL + Progesterone < 1.57 μg/L” value (healthy female subjects [4]; 2 mg, n = 12, treatment period) of the same molecule?
A: Its value is 92%.

Q: What about the “number of subjects with Follicle size > 13 mm + Estradiol > 27.2 pg/mL + Progesterone < 1.57 μg/L” value (healthy female subjects [4]; [11]) of the same molecule?
A: Its value is 1.

Q: What about the “percentage of subjects with Follicle size > 13 mm + Estradiol > 27.2 pg/mL + Progesterone < 1.57 μg/L” value (healthy female subjects [4]; [11]) of the same molecule?
A: The value was 8%.

Q: What about the “number of subjects with Follicle size > 13 mm + Estradiol > 27.2 pg/mL + Progesterone < 1.57 μg/L” value (healthy female subjects [4]; 5 mg, n = 11, treatment period) of the same molecule?
A: The value was 9.

Q: What about the “number of subjects with Follicle size ≤ 13 mm” value (healthy female subjects [4]; 5 mg, n = 11, treatment period) of the same molecule?
A: Its value is 1.

Q: And the “percentage of subjects with Follicle size > 13 mm + Estradiol > 27.2 pg/mL + Progesterone < 1.57 μg/L” value (healthy female subjects [4]; 5 mg, n = 11, treatment period)?
A: Its value is 82%.

Q: What about the “percentage of subjects with Follicle size ≤ 13 mm” value (healthy female subjects [4]; 5 mg, n = 11, treatment period) of the same molecule?
A: Its value is 9%.

Q: And the “number of subjects with Follicle size > 13 mm + Estradiol > 27.2 pg/mL + Progesterone < 1.57 μg/L” value (healthy female subjects [4]; [12])?
A: The value was 1.

Q: What about the “percentage of subjects with Follicle size > 13 mm + Estradiol > 27.2 pg/mL + Progesterone < 1.57 μg/L” value (healthy female subjects [4]; [12]) of the same molecule?
A: The value was 9%.

Q: What about the “ovulation during treatment (progesterone value <1.57 μg/L)” value (healthy female subjects [4]; dosages ≥0.5 mg, 84 days) of the same molecule?
A: Its value is “No ovulation occurred in most of the subjects”.
